Laboratory results taken from PubChem BioAssay AID493058 (The Scripps Research Institute Molecular Screening Center, 2011).
Active and inactive are the calls of the source.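 Rule for the calls: active = EC50 of 10 µM or lower; inactive = EC50 above 10 µM.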

Tested on: DHL10 Bax/Bak-deficient cells, cytotoxicity, MTS absorbance
Test: DHL10 Bax/Bak-null cell killing – MTS absorbance, EC50, counter-screen for MCL1-BIM inhibitor project, late-stage follow-up (AID 493058)

Row | SMILES | EC50
1 | CCCCN(C(=O)c1cc(-c2ccco2)nc2ccccc12)c1c(N)n(CCCC)c(=O)[nH]c1=O | > 25 µM (inactive)
2 | O=C(Nc1ccccn1)c1cc(-c2ccco2)nc2ccc(Br)cc12 | 10 µM
3 | CC(C)CCNC(=O)c1cc(-c2ccco2)nc2ccccc12 | > 25 µM (inactive)
4 | CC(=O)N1CCN(C(=O)c2cc(-c3ccc(C)o3)nc3ccccc23)CC1 | > 25 µM (inactive)
5 | O=C(NCC1CCCO1)c1cc(-c2ccco2)nc2ccccc12 (stereo unspecified) | > 25 µM (inactive)
6 | Cc1ccc(S(=O)(=O)N(C)C)cc1NC(=O)c1cc(-c2ccco2)nc2ccccc12 | > 25 µM (inactive)
7 | Cc1ccc(-c2cc(C(=O)Nc3cccc(S(=O)(=O)N(C)C)c3)c3ccccc3n2)o1 | > 25 µM (inactive)
8 | Cc1ccc(-c2cc(C(=O)N3CCN(c4ccccc4O)CC3)c3ccccc3n2)o1 | > 25 µM (inactive)
9 | O=C(Nc1ccccc1N1CCOCC1)c1cc(-c2ccco2)nc2ccccc12 | > 25 µM (inactive)
10 | CCCCn1c(N)c(N(CCC(C)C)C(=O)c2cc(-c3ccco3)nc3ccccc23)c(=O)[nH]c1=O | > 25 µM (inactive)
11 | COCCN(C(=O)c1cc(-c2ccco2)nc2ccccc12)c1c(N)n(Cc2ccccc2)c(=O)[nH]c1=O | > 25 µM (inactive)
12 | Cc1ccnc(NC(=O)c2cc(-c3ccc(C)o3)nc3ccccc23)c1 | > 25 µM (inactive)
13 | O=C(Nc1nncs1)c1cc(-c2ccco2)nc2ccccc12 | > 25 µM (inactive)
14 | Cc1ccc(-c2cc(C(=O)N3CCCC(C(F)(F)F)C3)c3ccccc3n2)o1 (stereo unspecified) | > 25 µM (inactive)
15 | COc1ccc(Cc2nnc(NC(=O)Cc3ccc(-c4ccccc4)cc3)s2)cc1OC | > 25 µM (inactive)
16 | O=C(CCn1nnc2ccccc21)Nc1nnc(Cc2ccc(F)cc2)s1 | > 25 µM (inactive)
17 | COc1ccc(NC(=O)c2cc(-c3ccco3)nc3ccccc23)cc1 | > 25 µM (inactive)
18 | CCN(CC)C(=O)COc1ccc2c(-c3ccc(OC)cc3)cc(=O)oc2c1 | > 25 µM (inactive)

Row | SMILES | EC50
19 | Cc1ccc(-c2cc(C(=O)N3CC(C)OC(C)C3)c3ccccc3n2)o1 (stereo unspecified) | > 25 µM (inactive)
20 | Cc1ccc(NC(=O)c2cc(-c3ccc(C)o3)nc3ccccc23)nc1 | > 25 µM (inactive)
21 | CN(CCOc1ccccc1)C(=O)c1cc(-c2ccco2)nc2ccccc12 | > 25 µM (inactive)
22 | Cc1ccc(-c2cc(C(=O)Nc3cccnc3)c3ccccc3n2)o1 | > 25 µM (inactive)
23 | Cc1ccc(-c2cc(C(=O)N3CCOCC3)c3ccccc3n2)o1 | > 25 µM (inactive)
24 | O=C(CCn1nnc2ccccc21)Nc1nnc(Cc2ccccc2)s1 | > 25 µM (inactive)
25 | COc1ccc(NC(=O)c2cc(-c3ccco3)nc3ccccc23)cn1 | > 25 µM (inactive)
26 | O=C(c1cc(-c2ccco2)nc2ccccc12)N1CCCC(C(F)(F)F)C1 (stereo unspecified) | > 25 µM (inactive)
27 | COc1ccc(Cc2nnc(NC(=O)Cc3sc(=S)[nH]c3C)s2)cc1OC | > 25 µM (inactive)
28 | Cc1ccc(-c2cc(C(=O)N3CCN(c4ccc(F)cc4)CC3)c3ccccc3n2)o1 | > 25 µM (inactive)
29 | COc1cccc(NC(=O)CN(C)C(=O)c2cc(-c3ccco3)nc3ccccc23)c1 | > 25 µM (inactive)
30 | O=C(c1cc(-c2ccco2)nc2ccccc12)N(Cc1nnc(-c2ccc(Cl)cc2)o1)C1CC1 | > 25 µM (inactive)
31 | COc1ccc(Cc2nnc(NC(=O)Cc3ccc4c(c3)OCO4)s2)cc1OC | > 25 µM (inactive)
32 | CC(=O)c1cccc(NC(=O)c2cc(-c3ccco3)nc3ccccc23)c1 | > 25 µM (inactive)
33 | Cc1ccc(-c2cc(C(=O)NCC(c3ccccc3)N(C)C)c3ccccc3n2)o1 (stereo unspecified) | > 25 µM (inactive)
34 | COc1ccc(Cc2nnc(NC(=O)Cc3ccc(C)cc3)s2)cc1OC | > 25 µM (inactive)
35 | CCCN(C(=O)c1cc(-c2ccco2)nc2ccccc12)c1c(N)n(Cc2ccccc2)c(=O)[nH]c1=O | > 25 µM (inactive)
36 | O=C(c1cc(-c2ccco2)nc2ccccc12)N1CCN(Cc2ccccc2)CC1 | > 25 µM (inactive)
